Assay results from ChEMBL document CHEMBL6092178, “Discovery of a novel KV7.2/7.3 channels agonist for the treatment of neuropathic pain” (Eur J Med Chem, 2024).
pEC50: −log10 of the molar value.

Experiments:
[1] = target: Voltage-gated potassium channel, KQT; KCNQ2(Kv7.2)/KCNQ3(Kv7.3) (Homo sapiens, UniProt O43525+O43526); test: Agonist activity at human KCNQ2/3 transfected in human HEK293 cells incubated for 30 mins by fluorimetric assay; format: cell-based
[2] = Hepatotoxicity in rat assessed as change in serum AST level at 10 to 40 mg/kg, IG administered for 28 days and measured after 14 days; format: toxicity, organism-based; settings: in vivo, po, 672 h, dose 10-40 mg/kg, time 28 day
[3] = Hepatotoxicity in rat assessed as change in serum ALP level at 10 to 40 mg/kg, IG administered for 28 days and measured after 14 days; format: toxicity, organism-based; settings: in vivo, po, 672 h, dose 10-40 mg/kg, time 28 day
[4] = Hepatotoxicity in rat assessed as change in serum total bilirubin (TBIL) level at 10 to 40 mg/kg, IG administered for 28 days and measured after 14 days; format: toxicity, organism-based; settings: in vivo, po, 672 h, dose 10-40 mg/kg, time 28 day
[5] = Hepatotoxicity in rat assessed as increase in serum ALT level at 10 to 20 mg/kg, IG administered for 28 days and measured after 14 days relative to control; format: toxicity, organism-based; settings: in vivo, po, 672 h, dose 10-20 mg/kg, time 28 day
[6] = Hepatotoxicity in rat assessed as increase in serum ALT level at 40 mg/kg, IG administered for 28 days and measured after 14 days; format: toxicity, organism-based; settings: in vivo, po, 672 h, time 28 day
[7] = Hepatotoxicity in rat assessed as increase in serum TBIL level at 40 mg/kg, IG administered for 28 days and measured after 14 days; format: toxicity, organism-based; settings: in vivo, po, 672 h, time 28 day

Sequence of Voltage-gated potassium channel, KQT; KCNQ2(Kv7.2)/KCNQ3(Kv7.3) (O43526 whole entry): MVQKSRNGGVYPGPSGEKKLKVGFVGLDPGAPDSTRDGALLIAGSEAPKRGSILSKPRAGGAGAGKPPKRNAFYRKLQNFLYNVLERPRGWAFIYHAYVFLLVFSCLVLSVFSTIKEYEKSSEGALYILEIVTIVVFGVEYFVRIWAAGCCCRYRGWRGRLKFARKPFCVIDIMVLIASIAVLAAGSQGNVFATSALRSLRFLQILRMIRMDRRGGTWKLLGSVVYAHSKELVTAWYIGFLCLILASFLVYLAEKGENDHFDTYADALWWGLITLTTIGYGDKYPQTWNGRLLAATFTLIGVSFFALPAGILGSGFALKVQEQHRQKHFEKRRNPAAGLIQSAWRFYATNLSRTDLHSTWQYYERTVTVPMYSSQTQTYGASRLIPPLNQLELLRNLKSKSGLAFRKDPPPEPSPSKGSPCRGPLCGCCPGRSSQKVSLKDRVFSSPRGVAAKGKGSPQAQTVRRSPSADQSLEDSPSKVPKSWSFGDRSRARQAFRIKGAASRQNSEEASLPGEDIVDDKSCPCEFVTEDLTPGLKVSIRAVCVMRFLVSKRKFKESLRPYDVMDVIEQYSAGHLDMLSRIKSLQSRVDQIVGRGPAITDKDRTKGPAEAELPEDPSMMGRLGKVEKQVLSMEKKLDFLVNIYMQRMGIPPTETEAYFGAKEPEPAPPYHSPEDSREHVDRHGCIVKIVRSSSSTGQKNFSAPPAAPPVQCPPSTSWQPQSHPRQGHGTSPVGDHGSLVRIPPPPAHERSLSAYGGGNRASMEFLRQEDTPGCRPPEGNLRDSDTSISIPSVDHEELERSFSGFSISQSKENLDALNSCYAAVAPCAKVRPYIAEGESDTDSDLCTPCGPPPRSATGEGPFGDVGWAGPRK
Sequence of Voltage-gated potassium channel, KQT; KCNQ2(Kv7.2)/KCNQ3(Kv7.3) (O43525 whole entry): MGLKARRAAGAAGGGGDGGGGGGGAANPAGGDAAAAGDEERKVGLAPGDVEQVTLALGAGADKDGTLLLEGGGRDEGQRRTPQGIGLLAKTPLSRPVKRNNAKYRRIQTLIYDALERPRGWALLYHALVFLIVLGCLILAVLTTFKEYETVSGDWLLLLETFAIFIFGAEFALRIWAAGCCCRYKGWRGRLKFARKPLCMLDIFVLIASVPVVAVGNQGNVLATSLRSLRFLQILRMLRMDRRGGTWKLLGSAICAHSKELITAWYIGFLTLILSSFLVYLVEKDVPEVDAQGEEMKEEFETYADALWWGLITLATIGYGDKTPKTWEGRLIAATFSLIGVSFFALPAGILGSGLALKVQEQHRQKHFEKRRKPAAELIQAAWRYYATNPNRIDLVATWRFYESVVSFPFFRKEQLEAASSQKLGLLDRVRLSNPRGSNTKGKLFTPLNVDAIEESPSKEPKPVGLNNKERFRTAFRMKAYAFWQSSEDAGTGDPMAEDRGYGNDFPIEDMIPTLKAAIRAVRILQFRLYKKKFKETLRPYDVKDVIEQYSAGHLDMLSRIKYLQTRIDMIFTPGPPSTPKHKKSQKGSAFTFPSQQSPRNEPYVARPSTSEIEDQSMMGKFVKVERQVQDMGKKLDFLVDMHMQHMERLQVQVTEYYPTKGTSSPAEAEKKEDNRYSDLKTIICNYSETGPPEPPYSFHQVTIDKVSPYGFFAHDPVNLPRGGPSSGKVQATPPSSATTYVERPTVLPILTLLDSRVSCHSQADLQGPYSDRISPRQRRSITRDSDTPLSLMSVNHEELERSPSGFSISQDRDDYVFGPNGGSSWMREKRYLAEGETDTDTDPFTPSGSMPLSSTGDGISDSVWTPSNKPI

Compound	pEC50 [1]	other results
Nc1ccc(OCc2ccc(F)cc2)nc1NC(=O)C1CCCCC1	3.79	
CC(=O)Nc1nc(OCc2ccc(-c3ccccc3)cc2)ccc1N	3.88	
Nc1ccc(OCc2ccc(F)cc2)cc1NC(=O)C1CC1	4.52	
CCC(=O)Nc1nc(OCc2ccc(F)cc2)ccc1N	4.86	
COc1ccc(COc2ccc(N)c(NC(C)=O)n2)cc1	4.87	
CC(=O)Nc1nc(OCc2ccc(Cl)c(Cl)c2)ccc1N	5.00	
CC(C)C(=O)Nc1nc(OCc2ccc(F)cc2)ccc1N	4.74	
CC(=O)Nc1nc(OCCc2ccc(F)cc2)ccc1N	5.03	
CC(=O)Nc1cc(OCc2ccc(F)cc2)ccc1N	4.87	
CCOC(=O)Nc1ccc(NCc2ccc(F)cc2)nc1N [FLUPIRTINE]	5.72	Activity [2]: Non-toxic; Activity [3]: Non-toxic; Activity [4]: Non-toxic; Activity [5]: < 70%; Activity [6]: Toxic; Activity [7]: Toxic
CC(=O)Nc1ccc(OCc2ccc(F)cc2)nc1NC(C)=O	5.12	
CC(=O)Nc1nc(OCc2ccc3c(c2)OCO3)ccc1N	3.89	
CC(=O)Nc1nc(OCc2ccc(C(F)(F)F)cc2)ccc1N	5.05	
